Patent publication US20090163586A1, “Bis-(Sulfonylamino) Derivatives in Therapy 205” (AstraZeneca AB, priority 2007, published 2009)

Biological target: T1, human mPGES-1 (Homo sapiens, UniProt O14684)
T1 sequence (O14684 1-152): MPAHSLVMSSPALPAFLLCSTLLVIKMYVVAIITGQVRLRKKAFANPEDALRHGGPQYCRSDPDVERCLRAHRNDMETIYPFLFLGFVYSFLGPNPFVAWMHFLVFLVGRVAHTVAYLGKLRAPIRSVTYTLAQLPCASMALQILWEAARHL
Test: Microsomal prostaglandin E synthase biochemical assay
Conditions: microsome preparation containing human mPGES-1; PGH2 10.8 μM, GSH 2.5 mM, pH 6.8; PGE2 by HTRF; average of at least n=2
Method: Compounds were tested as inhibitors of microsomal prostaglandin E synthase activity in microsomal prostaglandin E synthase assays and whole cell assays. These assays measure prostaglandin E2 (PGE2) synthesis which is taken as a measure of prostaglandin E synthase activity. Microsomal prostaglandin E synthase biochemical assays used microsomal prostaglandin E synthase-1 in microsomal preparations. The source of the microsomes can be for example interleukin-1β-stimulated human A549 cells (which express human mPGES-1) or Sf9 cells transfected with plasmids encoding human mPGES-1 cDNA. The whole blood assay [described by Patrignani, P. et al., Journal of Pharmacology and Experimental Therapeutics, 1994, vol. 271, pp 1705-1712] was used as the whole cell assay for testing the compounds. Whole blood provides a protein and cell rich milieu for the study of biochemical efficacy of anti-inflammatory compounds such as prostaglandin synthase inhibitors. To study the inhibitory activities of these compounds, human blood was stimulated with lipopolysaccharide (LPS) for typically 16 hours to induce mPGES-1 expression, after which the concentration of produced PGE2 was measured by competitive-immuno assay (homogeneous time-resolved fluorescence, HTRF) as read out for effectiveness against mPGES-1-dependent PGE2 production.
Microsomal Prostaglandin E Synthase Biochemical Assay
A solution of test compound was added to a diluted microsome preparation containing human mPGES-1 and pre-incubated for 15 minutes in potassium phosphate buffer pH 6.8 with cofactor glutathione (GSH). Corresponding solutions without test compound were used as positive controls, and corresponding solutions without test compound and without microsomes were used as negative controls. The enzymatic reaction was then started by addition of the substrate PGH2 in an organic solution (dry acetonitrile).
The typical reaction conditions of the enzymatic reaction were thus: Test compound: ranging from 60 μM to 0.002 μM, or zero in positive and negative controls; potassium phosphate buffer pH 6.8: 50 mM; GSH: 2.5 mM; mPGES-1-containing microsomes: 2 μg/mL (sample and positive controls) or 0 μg/mL (negative control); PGH2: 10.8 μM; Acetonitrile: 7.7% (v/v); DMSO: 0.6% (v/v). The reaction was stopped after one minute by adding an acidic solution (pH 1.9) of ferric chloride and citrate (final concentrations 7 mM and 47 mM respectively), by which the PGH2 was sequestered (the PGH2 is reduced to mainly 12-hydroxy heptadecatrineoic acid (12-HHT) which is not detected by the subsequent PGE2 detection step). The resulting solution was then pH neutralized by addition of potassium phosphate buffer, prior to diluting an aliquot of the resulting solution in a weak potassium phosphate buffer (50 mM, pH 6.8) containing 0.2% BSA (w/v). [Adapted from Jacobsson et al., Proc. Natl. Acad. Sci. USA, 1999, vol. 96, pp. 7220-7225]The PGE2 formed was quantified by use of a commercial HTRF based kit (catalogue #62PG2PEC or #62P2APEC from Cisbio International). 100% activity was defined as the PGE2 production in positive controls subtracted by the PGE2 production in the negative controls. IC50 values were then determined using standard procedures.
The potency is expressed as IC50 and the value indicated is an average of at least n=2.

IC50 | Structure (SMILES)
6200 nM | NS(=O)(=O)c1c(F)cccc1NS(=O)(=O)/C=C/c1cccc(C(F)(F)F)c1 [Example 66, 2-Fluoro-6-[[(E)-2-[3-(trifluoromethyl)phenyl]ethenyl]sulfonylamino]-benzenesulfonamide]
6400 nM | NS(=O)(=O)c1ccc(F)cc1NS(=O)(=O)/C=C/c1ccccc1F [Example 67, 4-Fluoro-2-[[(E)-2-(2-fluorophenyl)ethenyl]sulfonylamino]benzenesulfonamide]
9100 nM | Cc1ccc(NS(=O)(=O)/C=C/c2cccc(C(F)(F)F)c2)c(S(N)(=O)=O)c1 [Example 68, 5-Methyl-2-[[(E)-2-[3-(trifluoromethyl)phenyl]ethenyl]sulfonylamino]-benzenesulfonamide]
270 nM | NS(=O)(=O)c1ccccc1NS(=O)(=O)CCc1ccc(C2CCCC2)cc1 [Example 69, 2-[2-(4-Cyclopentylphenyl)ethylsulfonylamino]benzenesulfonamide]
220 nM | CC(C)(C)c1ccc(CCS(=O)(=O)Nc2ccccc2S(N)(=O)=O)cc1 [Example 70, 2-[2-(4-Tert-butylphenyl)ethylsulfonylamino]benzenesulfonamide]
300 nM | CC(C)(C)c1ccc(CCS(=O)(=O)Nc2cc(F)ccc2S(N)(=O)=O)cc1 [Example 71, 4-Fluoro-2-[2-(4-tert-butylphenyl)ethylsulfonylamino]benzenesulfonamide]
490 nM | NS(=O)(=O)c1ccccc1NS(=O)(=O)CCc1ccc(Cl)cc1 [Example 72, 2-[2-(4-Chlorophenyl)ethylsulfonylamino]benzenesulfonamide]
290 nM | NS(=O)(=O)c1ccccc1NS(=O)(=O)/C=C/c1ccc(Cl)cc1 [Example 73, 2-[[(E)-2-(4-Chlorophenyl)ethenyl]sulfonylamino]benzenesulfonamide]
9800 nM | NS(=O)(=O)c1ccccc1NS(=O)(=O)CCc1ccccc1 [Example 74, 2-(Phenethylsulfonylamino)benzenesulfonamide]
2600 nM | NS(=O)(=O)c1ccccc1NS(=O)(=O)/C=C/c1ccccc1 [Example 75, 2-[[(E)-2-Phenylethenyl]sulfonylamino]benzenesulfonamide]
1200 nM | NS(=O)(=O)c1ccccc1NS(=O)(=O)CCc1ccccc1Cl [Example 76, 2-[2-(2-Chlorophenyl)ethylsulfonylamino]benzenesulfonamide]
3100 nM | COc1ccc(/C=C/S(=O)(=O)Nc2ccccc2S(N)(=O)=O)cc1 [Example 77, 2-[[(E)-2-(4-Methoxyphenyl)ethenyl]sulfonylamino]benzenesulfonamide]
350 nM | NS(=O)(=O)c1ccc(F)cc1NS(=O)(=O)/C=C/c1ccc(Cl)cc1 [Example 78, 2-[[(E)-2-(4-Chlorophenyl)ethenyl]sulfonylamino]-4-fluoro-benzenesulfonamide]
9900 nM | CC(CS(=O)(=O)Nc1ccccc1S(N)(=O)=O)c1ccccc1 (stereo not shown) [Example 79, 2-(2-Phenylpropylsulfonylamino)benzenesulfonamide]
570 nM | NS(=O)(=O)c1c(F)cccc1NS(=O)(=O)/C=C/c1ccc(Cl)cc1 [Example 80, 2-[[(E)-2-(4-Chlorophenyl)ethenyl]sulfonylamino]-6-fluoro-benzenesulfonamide]
2900 nM | NS(=O)(=O)c1ccccc1NS(=O)(=O)/C=C/c1c(Cl)cccc1Cl [Example 81, 2-[[(E)-2-(2,6-Dichlorophenyl)ethenyl]sulfonylamino]benzenesulfonamide]
7300 nM | Cc1ccc(/C=C/S(=O)(=O)Nc2ccccc2S(N)(=O)=O)cc1 [Example 82, 2-[[(E)-2-(4-Methylphenyl)ethenyl]sulfonylamino]benzenesulfonamide]

IC50 | Structure (SMILES)
430 nM | COc1ccccc1/C=C/S(=O)(=O)Nc1ccccc1S(N)(=O)=O [Example 83, 2-[[(E)-2-(2-Methoxyphenyl)ethenyl]sulfonylamino]benzenesulfonamide]
190 nM | NS(=O)(=O)c1ccccc1NS(=O)(=O)/C=C/c1ccc2ccccc2c1 [Example 84, 2-[[(E)-2-Naphthalen-2-ylethenyl]sulfonylamino]benzenesulfonamide]
800 nM | NS(=O)(=O)c1ccc(F)cc1NS(=O)(=O)CCc1ccc(Cl)cc1 [Example 85, 2-[2-(4-Chlorophenyl)ethylsulfonylamino]-4-fluoro-benzenesulfonamide]
700 nM | C/C(=C\S(=O)(=O)Nc1ccccc1S(N)(=O)=O)c1ccc(Cl)cc1 [Example 86, 2-[[(E)-2-(4-Chlorophenyl)prop-1-enyl]sulfonylamino]benzenesulfonamide]
2400 nM | C=C(CS(=O)(=O)Nc1ccccc1S(N)(=O)=O)c1ccc(Cl)cc1 [Example 87, 2-[2-(4-Chlorophenyl)prop-2-enylsulfonylamino]benzenesulfonamide]
1300 nM | NS(=O)(=O)c1c(F)cccc1NS(=O)(=O)/C=C/c1ccc2ccccc2c1 [Example 88, 2-Fluoro-6-[[(E)-2-naphthalen-2-ylethenyl]sulfonylamino]benzenesulfonamide]
2800 nM | NS(=O)(=O)c1c(F)cccc1NS(=O)(=O)/C=C/c1ccccc1C(F)(F)F [Example 89, 2-Fluoro-6-[[(E)-2-[2-(trifluoromethyl)phenyl]ethenyl]sulfonylamino]-benzenesulfonamide]
870 nM | NS(=O)(=O)c1c(F)cccc1NS(=O)(=O)/C=C/c1ccc(C(F)(F)F)cc1 [Example 90, 2-Fluoro-6-[[(E)-2-[4-(trifluoromethyl)phenyl]ethenyl]sulfonylamino]-benzenesulfonamide]
310 nM | NS(=O)(=O)c1c(F)cccc1NS(=O)(=O)/C=C/c1ccc(Br)cc1 [Example 91, 2-[[(E)-2-(4-Bromophenyl)ethenyl]sulfonylamino]-6-fluoro-benzenesulfonamide]
91 nM | NS(=O)(=O)c1ccc(F)cc1NS(=O)(=O)/C=C/c1ccc2ccccc2c1 [Example 92, 4-Fluoro-2-[[(E)-2-naphthalen-2-ylethenyl]sulfonylamino]benzenesulfonamide]
650 nM | NS(=O)(=O)c1ccc(F)cc1NS(=O)(=O)/C=C/c1ccccc1C(F)(F)F [Example 93, 4-Fluoro-2-[[(E)-2-[2-(trifluoromethyl)phenyl]ethenyl]sulfonylamino]-benzenesulfonamide]
650 nM | NS(=O)(=O)c1ccc(F)cc1NS(=O)(=O)/C=C/c1ccc(C(F)(F)F)cc1 [Example 94, 4-Fluoro-2-[[(E)-2-[4-(trifluoromethyl)phenyl]ethenyl]sulfonylamino]-benzenesulfonamide]
310 nM | NS(=O)(=O)c1ccc(F)cc1NS(=O)(=O)/C=C/c1ccc(Br)cc1 [Example 95, 2-[[(E)-2-(4-Bromophenyl)ethenyl]sulfonylamino]-4-fluoro-benzenesulfonamide]
4800 nM | Cc1ccc(NS(=O)(=O)/C=C/c2ccc3ccccc3c2)c(S(N)(=O)=O)c1 [Example 96, 5-Methyl-2-[[(E)-2-naphthalen-2-ylethenyl]sulfonylamino]benzenesulfonamide]
3400 nM | Cc1ccc(NS(=O)(=O)/C=C/c2ccc(C(F)(F)F)cc2)c(S(N)(=O)=O)c1 [Example 97, 5-Methyl-2-[[(E)-2-[4-(trifluoromethyl)phenyl]ethenyl]sulfonylamino]-benzenesulfonamide]
680 nM | Cc1ccc(NS(=O)(=O)/C=C/c2ccc(Br)cc2)c(S(N)(=O)=O)c1 [Example 98, 2-[[(E)-2-(4-Bromophenyl)ethenyl]sulfonylamino]-5-methyl-benzenesulfonamide]
290 nM | NS(=O)(=O)c1cc(F)ccc1NS(=O)(=O)/C=C/c1ccc2ccccc2c1 [Example 99, 5-Fluoro-2-[[(E)-2-naphthalen-2-ylethenyl]sulfonylamino]benzenesulfonamide]
